Biological target: T1, mutant CFTR (Homo sapiens, UniProt P13569, DEL508-508)
T1 construct: expressed in transfected cells
Assay: Fluorescence (HS-YFP) assay for CFTR activity, corrector assay
Type: cell-based
Settings: CFBE41o- and FRT cells with stable expression of mutant CFTR, 24 h compound treatment
Outline: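 CFBE41o- or FRT cells stably expressing mutant CFTR and HS-YFP were exposed to compounds for 24 h (corrector mode), then stimulated 30 min at 37° C with forskolin (20 μM) plus genistein (50 μM). YFP quenching after 100 mM iodide injection; initial slope from exponential fit of final 10 s; EC50 reported.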

T1 sequence (P13569 with tags, fused parts or gaps DEL508-508): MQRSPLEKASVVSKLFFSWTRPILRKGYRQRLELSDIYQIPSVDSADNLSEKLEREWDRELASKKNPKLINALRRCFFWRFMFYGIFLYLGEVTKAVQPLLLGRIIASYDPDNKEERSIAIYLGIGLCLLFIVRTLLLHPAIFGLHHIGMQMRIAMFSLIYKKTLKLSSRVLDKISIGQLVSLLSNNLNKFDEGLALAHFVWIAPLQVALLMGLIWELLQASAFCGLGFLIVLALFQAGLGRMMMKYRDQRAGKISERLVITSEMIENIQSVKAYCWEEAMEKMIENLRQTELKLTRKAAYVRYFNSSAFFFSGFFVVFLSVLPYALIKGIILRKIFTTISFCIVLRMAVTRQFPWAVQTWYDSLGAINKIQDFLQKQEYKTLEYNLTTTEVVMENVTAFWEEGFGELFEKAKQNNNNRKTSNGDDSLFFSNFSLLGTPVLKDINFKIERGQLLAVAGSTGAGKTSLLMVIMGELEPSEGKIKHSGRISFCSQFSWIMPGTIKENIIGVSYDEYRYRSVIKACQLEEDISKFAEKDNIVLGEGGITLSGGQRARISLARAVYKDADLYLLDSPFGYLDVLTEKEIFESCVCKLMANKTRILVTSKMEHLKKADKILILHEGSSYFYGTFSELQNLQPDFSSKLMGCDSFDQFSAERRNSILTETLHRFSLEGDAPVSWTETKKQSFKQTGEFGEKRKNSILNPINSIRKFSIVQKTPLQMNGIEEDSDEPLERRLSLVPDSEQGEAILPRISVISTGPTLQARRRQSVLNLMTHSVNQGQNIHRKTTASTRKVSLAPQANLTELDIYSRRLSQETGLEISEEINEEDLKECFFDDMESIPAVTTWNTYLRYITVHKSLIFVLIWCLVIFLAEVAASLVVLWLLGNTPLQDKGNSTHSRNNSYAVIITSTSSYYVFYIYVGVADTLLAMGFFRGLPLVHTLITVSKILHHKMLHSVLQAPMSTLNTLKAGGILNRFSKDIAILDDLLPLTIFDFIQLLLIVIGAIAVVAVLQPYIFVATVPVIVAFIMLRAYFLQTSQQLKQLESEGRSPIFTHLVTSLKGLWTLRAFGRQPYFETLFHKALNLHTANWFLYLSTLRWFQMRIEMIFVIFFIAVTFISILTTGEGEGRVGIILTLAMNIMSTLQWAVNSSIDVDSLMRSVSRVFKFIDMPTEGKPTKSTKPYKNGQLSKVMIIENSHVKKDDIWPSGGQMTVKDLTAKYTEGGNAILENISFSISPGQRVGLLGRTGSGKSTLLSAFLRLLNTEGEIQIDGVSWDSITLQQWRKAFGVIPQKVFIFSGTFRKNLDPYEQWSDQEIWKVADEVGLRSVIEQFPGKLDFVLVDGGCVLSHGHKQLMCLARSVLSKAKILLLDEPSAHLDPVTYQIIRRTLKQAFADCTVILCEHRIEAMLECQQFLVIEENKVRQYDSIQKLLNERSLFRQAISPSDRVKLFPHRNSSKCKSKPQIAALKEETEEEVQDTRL

Structure (SMILES)	EC50 [nM]
CN(C(=O)c1cccc(-n2nc(C(F)(F)F)c(Cl)c2OCc2ccccc2)c1)c1ccc2c(c1)OCO2 [compound 134, N-(1,3-Benzodioxol-5-yl)-3-[5-benzyloxy-4-chloro-3-(trifluoromethyl)pyrazol-1-yl]-N-methyl-benzamide]	< 1000
Cc1cc(C)n(-c2cccc(S(=O)(=O)N(C)c3ccc4c(c3)OCCO4)c2)n1 [compound 017, N-(2,3-dihydro-1,4-benzodioxin-6-yl)-3-(3,5-dimethylpyrazol-1-yl)-N-methyl-benzenesulfonamide]	> 2000
Cc1nc2ccc(NC(=O)c3cccc(-n4nc(C(F)(F)F)c(Cl)c4COc4ccc(C(=O)OC(C)(C)C)cc4)c3)cn2n1 [compound 173, tert-Butyl 4-[[4-chloro-2-[3-[(2-methyl-[1,2,4]triazolo[1,5-a]pyridin-6-yl)carbamoyl]phenyl]-5-(trifluoromethyl)pyrazol-3-yl]methoxy]benzoate]	> 2000
Cc1nn(-c2cccc(C(=O)Nc3ccc4c(c3)OCCN4)c2)c(C)c1Cl [Int-018, 3-(4-chloro-3,5-dimethyl-pyrazol-1-yl)-N-(3,4-dihydro-2H-1,4-benzoxazin-7-yl)benzamide]	> 2000
Cc1c(Cl)c(C(F)(F)F)nn1-c1cccc(C(=O)Nc2ccc3cn(C)nc3c2)c1 [Int-121, 3-[4-Chloro-5-methyl-3-(trifluoromethyl)pyrazol-1-yl]-N-(2-methylindazol-6-yl)benzamide]	> 2000
CCOc1cc(C(F)(F)F)nn1-c1cccc(C(=O)N(C)c2ccc3c(c2)OCO3)c1 [compound 158, N-(1,3-benzodioxol-5-yl)-3-[5-ethoxy-3-(trifluoromethyl)pyrazol-1-yl]-N-methyl-benzamide]	< 1000
Cc1nn(-c2cccc(C(=O)N(c3ccc4c(c3)OCCO4)C(C)C)c2)c(C)c1Cl [compound 003, 3-(4-Chloro-3,5-dimethyl-pyrazol-1-yl)-N-(2,3-dihydro-1,4-benzodioxin-6-yl)-N-isopropyl-benzamide]	> 2000
CN(C(=O)c1cccc(-n2nc(C(F)(F)F)c(Cl)c2OC2CCN(C(=O)OC(C)(C)C)CC2)c1)c1ccc2c(c1)OCO2 [compound 157, Tert-butyl 4-[2-[3-[1,3-benzodioxol-5-yl(methyl)carbamoyl]phenyl]-4-chloro-5-(trifluoromethyl)pyrazol-3-yl]oxypiperidine-1-carboxylate]	< 1000
CC(C)Cc1c(Cl)c(C(F)(F)F)nn1-c1cccc(C(=O)N(C)c2ccc3c(c2)OCO3)c1 [compound 101, N-(1,3-Benzodioxol-5-yl)-3-[4-chloro-5-isobutyl-3-(trifluoromethyl)pyrazol-1-yl]-N-methyl-benzamide]	< 1000
Cc1nn(-c2cccc(C(=O)N(C)c3ccc4c(c3)OCO4)c2)c(C=O)c1Cl [compound 112, N-(1,3-benzodioxol-5-yl)-3-(4-chloro-5-formyl-3-methyl-pyrazol-1-yl)-N-methyl-benzamide]	< 1000
CCOC(=O)c1nn(-c2cccc(C(=O)N(C)c3ccc4c(c3)OCO4)c2)c(C(C)C)c1Cl [compound 086, Ethyl 1-[3-[1,3-benzodioxol-5-yl(methyl)carbamoyl]phenyl]-4-chloro-5-isopropyl-pyrazole-3-carboxylate]	> 2000
Cc1nn(-c2cccc(C(=O)N(C)c3ccc4c(c3)OCO4)c2)c(C(=O)O)c1Cl [compound 083, 2-[3-[1,3-Benzodioxol-5-yl(methyl)carbamoyl]phenyl]-4-chloro-5-methyl-pyrazole-3-carboxylic acid]	> 2000
Cc1c(Cl)c(C(F)(F)F)nn1-c1cccc(C(=O)N(C)c2ccc3c(c2CO)OCO3)c1 [compound 209, 3-[4-chloro-5-methyl-3-(trifluoromethyl)pyrazol-1-yl]-N-[4-(hydroxymethyl)-1,3-benzodioxol-5-yl]-N-methyl-benzamide]	> 2000
Cc1nc2ccc(N(C)C(=O)c3cccc(-n4nc(C(F)(F)F)c(Cl)c4COc4ccc(C(=O)O)cc4)c3)cn2n1 [compound 236, 4-[[4-Chloro-2-[3-[methyl-(2-methyl-[1,2,4]triazolo[1,5-a]pyridin-6-yl)carbamoyl]phenyl]-5-(trifluoromethyl)pyrazol-3-yl]methoxy]benzoic acid]	< 1000
Cc1nn(-c2cccc(C(=O)N(C)c3ccc4ocnc4c3)c2)c(C)c1Cl [compound 029, N-(1,3-Benzoxazol-5-yl)-3-(4-chloro-3,5-dimethyl-pyrazol-1-yl)-N-methyl-benzamide]	> 2000
CCc1nn(-c2cccc(C(=O)N(C)c3ccc4c(c3)OCO4)c2)c(CC)c1Cl [compound 092, N-(1,3-Benzodioxol-5-yl)-3-(4-chloro-3,5-diethyl-pyrazol-1-yl)-N-methyl-benzamide]	< 1000
Cc1nc2cc(F)c(N(C)C(=O)c3cccc(-n4nc(C(F)(F)F)cc4OCc4ccc(C(=O)O)cc4)c3)cc2o1 [compound 196, 4-[[2-[3-[(5-Fluoro-2-methyl-1,3-benzoxazol-6-yl)-methyl-carbamoyl]phenyl]-5-(trifluoromethyl)pyrazol-3-yl]oxymethyl]benzoic acid]	< 1000
Cc1nn(-c2cccc(C(=O)N(C)c3ccc4c(c3)OCO4)c2)c(C2CC2)c1Cl [compound 094, N-(1,3-Benzodioxol-5-yl)-3-(4-chloro-5-cyclopropyl-3-methyl-pyrazol-1-yl)-N-methyl-benzamide]	< 1000
Cc1ccc(-n2nc(C)c(Cl)c2C)cc1C(=O)N(C)c1ccc2c(c1)OCCO2 [compound 031, 5-(4-chloro-3,5-dimethyl-pyrazol-1-yl)-N-(2,3-dihydro-1,4-benzodioxin-6-yl)-N, 2-dimethyl-benzamide]	> 2000
Cc1c(Cl)c(C(F)(F)F)nn1-c1cccc(C(=O)Nc2cc3c(cc2C=O)OCO3)c1 [Int-160, 3-[4-chloro-5-methyl-3-(trifluoromethyl)pyrazol-1-yl]-N-(6-formyl-1,3-benzodioxol-5-yl)benzamide]	> 2000
Cc1nn(-c2cccc(C(=O)N(C)c3ccc4c(c3)CCCC4)c2)c(C)c1Cl [compound 044]	> 2000
Cc1nn(-c2nccc(C(=O)N(C)c3ccc4c(c3)OCO4)n2)c(C)c1Cl [compound 072, N-(1,3-Benzodioxol-5-yl)-2-(4-chloro-3,5-dimethyl-pyrazol-1-yl)-N-methyl-pyrimidine-4-carboxamide]	> 2000
Cc1nn(-c2cccc(C(=O)N(C)c3ccc4oc(C5CC5)nc4c3)c2)c(C)c1Cl [compound 055, 3-(4-Chloro-3,5-dimethyl-pyrazol-1-yl)-N-(2-cyclopropyl-1,3-benzoxazol-5-yl)-N-methyl-benzamide]	1000 to 2000

The next lines start with the values.

EC50 [nM]	Structure (SMILES)
< 1000	CN(C(=O)c1cccc(-n2nc(C(F)(F)F)c(Cl)c2COc2ccc(C(=O)O)cc2)c1)c1ccc2c(c1)OC(F)(F)O2 [compound 177, 4-[[4-chloro-2-[3-[(2,2-difluoro-1,3-benzodioxol-5-yl)-methyl-carbamoyl]phenyl]-5-(trifluoromethyl)pyrazol-3-yl]methoxy]benzoic acid]
< 1000	CN(C(=O)c1cccc(-n2nc(C(F)(F)F)c(Cl)c2-c2ccccc2)c1)c1ccc2c(c1)OCO2 [compound 124, N-(1,3-Benzodioxol-5-yl)-3-[4-chloro-5-phenyl-3-(trifluoromethyl)pyrazol-1-yl]-N-methyl-benzamide]
1000 to 2000	Cc1nn(-c2cccc(C(=O)N(C)c3ccc4c(c3)OCCO4)c2)c(C)c1C(C)(C)C [compound 037, 3-(4-tert-Butyl-3,5-dimethyl-pyrazol-1-yl)-N-(2,3-dihydro-1,4-benzodioxin-6-yl)-N-methyl-benzamide]
> 2000	O=C(O)c1ccc(OCc2c(Cl)c(C(F)(F)F)nn2-c2cccc(C(=O)Nc3ccc4c(c3)OC(F)(F)O4)c2)cc1 [compound 174, 4-[[4-Chloro-2-[3-[(2,2-difluoro-1,3-benzodioxol-5-yl)carbamoyl]phenyl]-5-(trifluoromethyl)pyrazol-3-yl]methoxy] benzoic acid]
< 1000	Cc1c(C2CC2)c(C(F)(F)F)nn1-c1cccc(C(=O)N(C)c2ccc3c(c2)OCO3)c1 [compound 104, N-(1,3-Benzodioxol-5-yl)-3-[4-cyclopropyl-5-methyl-3-(trifluoromethyl)pyrazol-1-yl]-N-methyl-benzamide]
< 1000	[2H]C([2H])([2H])N(C(=O)c1cccc(-n2nc(C(F)(F)F)c(Cl)c2C2CC2)c1)c1ccc2nc(C)oc2c1 [compound 138, 3-[4-Chloro-5-cyclopropyl-3-(trifluoromethyl)pyrazol-1-yl]-N-(2-methyl-1,3-benzoxazol-6-yl)-N-(trideuteriomethyl)benzamide]
< 1000	Cc1cn2cc(N(C)C(=O)c3cccc(-n4nc(C(F)(F)F)c(Cl)c4COc4ccc(C(=O)O)cc4)c3)ccc2n1 [compound 256, 4-[[4-Chloro-2-[3-[methyl-(2-methylimidazo[1,2-a]pyridin-6-yl)carbamoyl]phenyl]-5-(trifluoromethyl)pyrazol-3-yl]methoxy]benzoic acid]
> 2000	Cc1nn(-c2cccc(C(=O)N(C)c3cccc4c3OC(F)(F)O4)c2)c(C)c1Cl [compound 026, 3-(4-Chloro-3,5-dimethyl-pyrazol-1-yl)-N-(2,2-difluoro-1,3-benzodioxol-4-yl)-N-methyl-benzamide]
< 1000	Cc1nc2ccc(N(C)C(=O)c3cccc(-n4nc(C(F)(F)F)cc4OCc4ccc(C(=O)O)cc4)c3)cc2o1 [compound 195, 4-[[2-[3-[Methyl-(2-methyl-1,3-benzoxazol-6-yl)carbamoyl]phenyl]-5-(trifluoromethyl)pyrazol-3-yl]oxymethyl]benzoic acid]
> 2000	Cc1c(Cl)c(C(F)(F)F)nn1-c1cccc(C(=O)Nc2cc3c(cc2C#N)OCO3)c1 [compound 162, 3-[4-chloro-5-methyl-3-(trifluoromethyl)pyrazol-1-yl]-N-(6-cyano-1,3-benzodioxol-5-yl)benzamide]
> 2000	Cc1nn(-c2cccc(C(=O)Nc3ccc4c(c3)COC4)c2)c(C)c1Cl [Int-051]

Reference: patent publication US12492193B2, “Pyrazole derivatives for the treatment of cystic fibrosis” (Fondazione Istituto Italiano Di Tecnologia, priority 2017, dated 2025)
